Data taken from patent publication US12110294B2, “CD73 compounds” (Gilead Sciences, Inc., priority 2020, dated 2024).
Where two headings read alike, the source gives them in different places.

Columns and labels:
CD73 [1] = molecular target: T1, CD73 (Homo sapiens, UniProt P21589); test: CD73 Biochemical IC50 Assay; conditions: final AMP 15 uM, final CD73 0.3 nM, 25 mM Tris pH 7.4, 5 mM MgCl2, no phosphate
T1 construct: purchased R&D system
T1 sequence (P21589 27-549): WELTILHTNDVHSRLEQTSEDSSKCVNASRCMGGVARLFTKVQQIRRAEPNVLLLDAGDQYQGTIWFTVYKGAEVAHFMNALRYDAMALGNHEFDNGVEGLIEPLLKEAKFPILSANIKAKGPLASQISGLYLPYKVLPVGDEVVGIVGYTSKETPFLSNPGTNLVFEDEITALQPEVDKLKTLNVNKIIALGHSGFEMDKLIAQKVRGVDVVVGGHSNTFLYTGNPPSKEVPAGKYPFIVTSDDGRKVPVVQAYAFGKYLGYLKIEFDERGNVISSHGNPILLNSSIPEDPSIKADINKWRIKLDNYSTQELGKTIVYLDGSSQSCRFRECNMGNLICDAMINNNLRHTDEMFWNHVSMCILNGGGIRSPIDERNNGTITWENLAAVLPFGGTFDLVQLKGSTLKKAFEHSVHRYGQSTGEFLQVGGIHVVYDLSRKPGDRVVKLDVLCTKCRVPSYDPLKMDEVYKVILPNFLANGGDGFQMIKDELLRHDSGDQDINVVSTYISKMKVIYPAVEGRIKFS
Protocol: CD73 Biochemical IC50 Assay
Compound serial dilutions were pre-spotted into Thermo Nunc assay plate. 50 μL CD73 enzyme buffer (CD73 purchased from R&D system=0.6 nM, 25 mM Tris, pH 7.4, 5 mM MgCl2) was added into the assay plate and incubated for 15 mins. […] The samples were run using Rapid fire.

CD73 [2] = molecular target: T1, CD73; type: biochemical; conditions: 1 mM NaH2PO4 in enzyme buffer, final AMP 15 uM, final CD73 0.3 nM
[3] = molecular target: T2, CD73 activity in MDA-MB-231-GFP cells (Homo sapiens, UniProt P21589); test: MDA-MB-231 Cell Based CD73 Activity Assay (DMEM); conditions: 3000 cells per well, DMEM medium with 10% human plasma, overnight compound treatment, AMP 200 uM
T2 construct: endogenous in cells; host or cells: MDA-MB-231-GFP cells
T2 sequence (P21589 27-549): T1 sequence (P21589 27-549)

Structure (SMILES) | IC50 (CD73 [1]) | IC50 (CD73 [2]) | EC50 [3]
O=c1[nH]cc(-c2cc([C@@H]3CC34CCC4)c3nccn3n2)c(=O)[nH]1 (racemic) [Example 5, (S)-5-(8-(spiro[2.3]hexan-1-yl)imidazo[1,2-b]pyridazin-6-yl)pyrimidine-2,4(1H,3H)-dione and (R)-5-(8-(spiro[2.3]hexan-1-yl)imidazo[1,2-b]pyridazin-6-yl)pyrimidine-2,4(1H,3H)-dione] | ≥ 2500 nM |  | 
O=c1[nH]cc(-c2cc([C@@H]3C[C@H]3c3ccc(C(F)(F)F)c(F)c3)c3nccn3n2)c(=O)[nH]1 (racemic) [Example 100, 5-(8-((2S,2S)-2-(3-fluoro-4-(trifluoromethyl)phenyl)cyclopropyl)imidazo[1,2-b]pyridazin-6-yl)pyrimidine-2,4(1H,3H)-dione and 5-(8-((1R,2R)-2-(3-fluoro-4-(trifluoromethyl)phenyl)cyclopropyl)imidazo[1,2-b]pyridazin-6-yl)pyrimidine-2,4(1H,3H)-dione] | 98.4 nM |  | 
COc1ccccc1[C@@H]1C[C@H]1c1cc(-c2c[nH]c(=O)[nH]c2=O)nn2ccnc12 (racemic) [Example 101, 5-(8-((2S,2S)-2-(2-methoxyphenyl)cyclopropyl)imidazo[1,2-b]pyridazin-6-yl)pyrimidine-2,4(1H,3H)-dione and 5-(8-((1R,2R)-2-(2-methoxyphenyl)cyclopropyl)imidazo[1,2-b]pyridazin-6-yl)pyrimidine-2,4(1H,3H)-dione] | 15.9 nM |  | 
CN(C)C(=O)c1cn2nc(-c3c[nH]c(=O)[nH]c3=O)cc([C@H]3C[C@@H]3c3ccc(F)cc3)c2n1 (racemic) [Example 197, 6-(2,4-dioxo-1H-pyrimidin-5-yl)-8-[(1S,2S)-2-(4-fluorophenyl)cyclopropyl]-N,N-dimethyl-imidazo[1,2-b]pyridazine-2-carboxamide] |  | 11 nM | 30.2 nM
O=C(c1cn2nc(-c3c[nH]c(=O)[nH]c3=O)cc([C@H]3C[C@@H]3c3ccc(F)cc3)c2n1)N1C[C@@H](F)[C@@H](F)C1 (racemic) [Example 200, 5-[2-[(3S,4R)-3,4-difluoropyrrolidine-1-carbonyl]-8-[(1S,2S)-2-(4-fluorophenyl)cyclopropyl]imidazo[1,2-b]pyridazin-6-yl]-1H-pyrimidine-2,4-dione] |  | > 250 nM | 809 nM
O=c1[nH]cc(-c2cc([C@H]3C[C@@H]3c3ccnc(C(F)(F)F)n3)c3nccn3n2)c(=O)[nH]1 (racemic) [Example 271, 5-(8-((2S,2S)-2-(2-(trifluoromethyl)pyrimidin-4-yl)cyclopropyl)imidazo[1,2-b]pyridazin-6-yl)pyrimidine-2,4(1H,3H)-dione] |  | 33.6 nM | 102 nM
O=c1[nH]cc(-c2cc([C@H]3C[C@@H]3c3ccc(OC(F)(F)F)cc3)c3ncc(F)n3n2)c(=O)[nH]1 (racemic) [Example 277, 5-(3-fluoro-8-((2S,2S)-2-(4-(trifluoromethoxy)phenyl)cyclopropyl)imidazo[1,2-b]pyridazin-6-yl)pyrimidine-2,4(1H,3H)-dione] |  | 3.77 nM | 79 nM
NC(=O)c1ccc([C@H]2C[C@@H]2c2cc(-c3c[nH]c(=O)[nH]c3=O)nn3ccnc23)cc1 (racemic) [Example 283, 4-((2S,2S)-2-(6-(2,4-dioxo-1,2,3,4-tetrahydropyrimidin-5-yl)imidazo[1,2-b]pyridazin-8-yl)cyclopropyl)benzamide] |  | 0.87 nM | 2.75 nM
O=c1[nH]cc(-c2cc([C@H]3C[C@@H]3c3ccc4cnn(CCC(F)(F)F)c4c3)c3nccn3n2)c(=O)[nH]1 (racemic) [Example 361, 5-(8-((1S,2S)-2-(1-(3,3,3-trifluoropropyl)-1H-indazol-6-yl)cyclopropyl)imidazo[1,2-b]pyridazin-6-yl)pyrimidine-2,4(1H,3H)-dione] |  | 2.72 nM | 2.53 nM
N#Cc1nn(CC(F)(F)F)c2cc([C@H]3C[C@@H]3c3cc(-c4c[nH]c(=O)[nH]c4=O)nn4ccnc34)ccc12 (racemic) [Example 362, 6-((1S,2S)-2-(6-(2,4-dioxo-1,2,3,4-tetrahydropyrimidin-5-yl)imidazo[1,2-b]pyridazin-8-yl)cyclopropyl)-1-(2,2,2-trifluoroethyl)-1H-indazole-3-carbonitrile] |  | 2.98 nM | 1 nM
O=c1[nH]cc(-c2cc([C@H]3C[C@@H]3c3cnc(C(F)(F)F)s3)c3nccn3n2)c(=O)[nH]1 (racemic) [Example 365, 5-(8-((2S,2S)-2-(2-(trifluoromethyl)thiazol-5-yl)cyclopropyl)imidazo[1,2-b]pyridazin-6-yl)pyrimidine-2,4(1H,3H)-dione] |  | 7.62 nM | 32.8 nM
O=c1[nH]cc(-c2cc([C@H]3C[C@@H]3c3nc(C(F)(F)F)cs3)c3nccn3n2)c(=O)[nH]1 (racemic) [Example 367, 5-(8-((2S,2S)-2-(4-(trifluoromethyl)thiazol-2-yl)cyclopropyl)imidazo[1,2-b]pyridazin-6-yl)pyrimidine-2,4(1H,3H)-dione] |  | 17.5 nM | 67.6 nM
O=c1[nH]cc(-c2cc([C@H]3C[C@@H]3c3ccc(C(F)F)cn3)c3nccn3n2)c(=O)[nH]1 (racemic) [Example 379, 5-(8-((1S,2S)-2-(5-(difluoromethyl)pyridin-2-yl)cyclopropyl)imidazo[1,2-b]pyridazin-6-yl)pyrimidine-2,4(1H,3H)-dione] |  | 1.98 nM | 5.89 nM
O=C(NCC(F)(F)F)OC1CN(c2cc(-c3c[nH]c(=O)[nH]c3=O)nn3ncnc23)CC1(F)F (racemic) [Example 436, 1-(6-(2,4-dioxo-1,2,3,4-tetrahydropyrimidin-5-yl)-[1,2,4]triazolo[1,5-b]pyridazin-8-yl)-4,4-difluoropyrrolidin-3-yl (2,2,2-trifluoroethyl)carbamate] |  | 0.13 nM | 0.43 nM
O=c1[nH]cc(-c2cc([C@H]3C[C@@H]3c3ccc(OCC(F)F)cn3)c3nccn3n2)c(=O)[nH]1 (racemic) [Example 590, 5-(8-((2S,2S)-2-(5-(2,2-difluoroethoxy)pyridin-2-yl)cyclopropyl)imidazo[1,2-b]pyridazin-6-yl)pyrimidine-2,4(1H,3H)-dione] |  | 1.05 nM | 2.04 nM
O=c1[nH]cc(-c2cc([C@H]3C[C@@H]3c3cnc4cnn(CC(F)(F)F)c4c3)c3nccn3n2)c(=O)[nH]1 (racemic) [Example 614, 5-(8-((1S,2S)-2-(1-(2,2,2-trifluoroethyl)-1H-pyrazolo[4,3-b]pyridin-6-yl)cyclopropyl)imidazo[1,2-b]pyridazin-6-yl)pyrimidine-2,4(1H,3H)-dione] |  | 2.06 nM | 0.13 nM
O=c1[nH]cc(-c2cc(N3C[C@H](O)C(F)(F)C3)c3nccn3n2)c(=O)[nH]1 (single isomer, unassigned) [Example 527] |  | 5.66 nM | 16.3 nM
O=c1[nH]cc(-c2cc(N3C[C@@H](O)C(F)(F)C3)c3nccn3n2)c(=O)[nH]1 (single isomer, unassigned) [Example 528] |  | 6.25 nM | 12.9 nM
O=c1[nH]cc(-c2cc([C@H]3C[C@@H]3c3ccc4c(c3)ncn4CC(F)(F)F)c3nccn3n2)c(=O)[nH]1 [Example 324, 5-(8-((1S,2S)-2-(1-(2,2,2-trifluoroethyl)-1H-benzo[d]imidazol-5-yl)cyclopropyl)imidazo[1,2-b]pyridazin-6-yl)pyrimidine-2,4(1H,3H)-dione] |  | 1.15 nM | 1.59 nM
O=c1[nH]cc(-c2cc([C@H]3C[C@@H]3c3ccc(F)cc3F)n3ncnc3n2)c(=O)[nH]1 [Example 416, 5-(7-((2S,2S)-2-(2,4-difluorophenyl)cyclopropyl)-[1,2,4]triazolo[1,5-a]pyrimidin-5-yl)pyrimidine-2,4(1H,3H)-dione] |  | 0.71 nM | 33.5 nM
O=c1[nH]cc(-c2cc([C@H]3C[C@@H]3c3ccc(C(F)(F)F)cc3)n3ncnc3n2)c(=O)[nH]1 [Example 417, 5-(7-((2S,2S)-2-(4-(trifluoromethyl)phenyl)cyclopropyl)-[1,2,4]triazolo[1,5-a]pyrimidin-5-yl)pyrimidine-2,4(1H,3H)-dione] |  | 0.87 nM | 12.6 nM
O=c1[nH]cc(-c2cc([C@H]3C[C@@H]3c3cc4c(cnn4CC(F)(F)F)cc3F)c3ncc(F)n3n2)c(=O)[nH]1 [Example 613, 5-(3-fluoro-8-((1S,2S)-2-(5-fluoro-1-(2,2,2-trifluoroethyl)-1H-indazol-6-yl)cyclopropyl)imidazo[1,2-b]pyridazin-6-yl)pyrimidine-2,4(1H,3H)-dione] |  | 0.58 nM | 0.71 nM
O=c1[nH]cc(-c2cc(N3C[C@@H]4C[C@H]3C(F)(F)C4)c3nccn3n2)c(=O)[nH]1 [Example 644, 5-(8-(6,6-difluoro-2-azabicyclo[2.2.1]heptan-2-yl)imidazo[1,2-b]pyridazin-6-yl)pyrimidine-2,4(1H,3H)-dione] |  | > 250 nM | 1420 nM
